System: E. Coli (ATCC 25922)
Assay: Photodynamic disinfection kill models (planktonic culture and biofilm)
Type: cell-based
Details: 670 nm laser illumination for 60 seconds
Description: A 0.01% (v/v) aqueous solution of methylene blue was reduced substantially entirely to the reduced state using ascorbic acid. […] The formulation was then tested for antibacterial efficacy against E. Coli (ATCC® 25922™) using two established photodynamic disinfection kill models (planktonic culture and biofilm) with a 670 nm laser energy source to provide desired illumination for 60 seconds. […] FIG. 2 is a bar graph showing the eradication of E. coli expressed in log^10 reduction in bacterial counts for the various samples used in the experiment. […]

O=C1O[C@H]([C@@H](O)CO)C(O)=C1O [ascorbic acid]
reduction in bacterial counts (viable count) of E. coli: did not itself demonstrate any antibacterial effects

From patent US20090093470A1, “PHOTODYNAMIC THERAPY PROCESS AND PHOTOSENSITIZER COMPOSITIONS THEREFOR” (Ondine International, Ltd., priority 2007, published 2009)
